# Laboratory results: patent US4579822A (priority 1983, dated 1986)
# Read-outs that look alike come from different tables or passages of the source.
# How the values were obtained:
# Format in all cases: biochemical, Schizosaccharomyces pombe IFO 0354
# [1] = tested on: DHAK (II); assay: Substrate specificity of DHAK (II); settings: for Relative activity DHAK (II) (substrate): each substrate 1.0 mM, pH 7.5, 25° C., DHA = 100%
# Experimental: (§1) The reaction mixture for measuring the substrate specificity of DHAK consists of 1.0 ml of 0.1M triethanolamine-HCl buffer (pH 7.5), 2.5 mM ATP, 4 mM MgSO4, 0.2 mM NADH, 1.3 mM phosphoenolpyruvate, 6 units of pyruvate kinase, 6 units of lactate dehydrogenase (Boehringer Mannheim GmbH), 0.01 ml of enzyme solution and each substrate (1.0 mM) as shown in Table 1. The reaction is started by adding enzyme solution and measured the decrease in the absorbance at 340 nm at 25° C. The above reaction is represented by the following equations: [drawing 4]
# [2] = biological target: T1, DHAK (I) (Schizosaccharomyces pombe, UniProt O13902); assay: Substrate specificity of DHAK (I)
# T1 construct: DHAK (I) and DHAK (II) obtained from Schizosaccharomyces pombe IFO 0354; made in house; host or cells: Schizosaccharomyces pombe IFO 0354 (natural producer, not recombinant); cell extract, DEAE-Sepharose fraction at 0.12 M KCl, then Blue-Sepharose
# T1 sequence (O13902 1-580): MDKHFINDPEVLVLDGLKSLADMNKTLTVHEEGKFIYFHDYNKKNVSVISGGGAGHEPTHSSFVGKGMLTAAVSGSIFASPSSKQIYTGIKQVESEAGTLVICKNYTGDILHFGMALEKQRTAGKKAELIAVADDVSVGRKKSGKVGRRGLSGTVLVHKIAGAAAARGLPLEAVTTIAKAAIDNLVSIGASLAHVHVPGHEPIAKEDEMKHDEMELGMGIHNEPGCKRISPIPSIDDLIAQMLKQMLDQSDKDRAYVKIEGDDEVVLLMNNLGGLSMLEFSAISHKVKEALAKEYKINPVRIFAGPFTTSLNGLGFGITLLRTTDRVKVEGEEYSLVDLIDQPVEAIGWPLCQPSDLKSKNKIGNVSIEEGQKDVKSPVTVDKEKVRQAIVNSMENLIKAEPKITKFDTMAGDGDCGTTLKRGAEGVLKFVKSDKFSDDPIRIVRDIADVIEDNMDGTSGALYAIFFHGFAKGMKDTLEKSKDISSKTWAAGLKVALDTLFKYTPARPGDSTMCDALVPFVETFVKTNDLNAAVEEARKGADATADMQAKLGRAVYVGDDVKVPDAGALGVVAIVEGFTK
# Experimental: as §1
# [3] = biological target: T2, DHAK (II) (Schizosaccharomyces pombe, UniProt O74215); assay: Specificity of DHAK (II) for phosphate donor; settings: for Relative activity DHAK (II) (phosphate donor): Adenosine 5'-triphosphate = 100%
# T2 construct: DHAK (I) and DHAK (II) obtained from Schizosaccharomyces pombe IFO 0354; made in house; host or cells: Schizosaccharomyces pombe IFO 0354 (natural producer, not recombinant); cell extract, DEAE-Sepharose fraction at 0.16 M KCl, then Blue-Sepharose
# T2 sequence (O74215 1-591): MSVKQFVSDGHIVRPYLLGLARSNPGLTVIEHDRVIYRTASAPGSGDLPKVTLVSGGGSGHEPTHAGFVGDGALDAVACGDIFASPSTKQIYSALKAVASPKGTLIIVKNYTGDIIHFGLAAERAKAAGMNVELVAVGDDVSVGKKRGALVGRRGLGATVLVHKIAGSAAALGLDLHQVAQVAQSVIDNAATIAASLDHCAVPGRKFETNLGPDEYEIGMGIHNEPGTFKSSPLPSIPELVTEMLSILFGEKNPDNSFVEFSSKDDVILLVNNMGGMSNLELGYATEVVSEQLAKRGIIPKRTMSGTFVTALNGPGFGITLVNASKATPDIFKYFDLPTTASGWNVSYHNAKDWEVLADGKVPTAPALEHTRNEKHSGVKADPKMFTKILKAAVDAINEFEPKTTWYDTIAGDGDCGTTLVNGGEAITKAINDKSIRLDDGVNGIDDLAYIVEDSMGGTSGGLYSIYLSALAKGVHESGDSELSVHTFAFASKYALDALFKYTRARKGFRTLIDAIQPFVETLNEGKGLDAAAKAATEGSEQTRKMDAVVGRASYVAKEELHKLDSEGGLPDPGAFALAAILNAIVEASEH
# Experimental: (§2) The reaction is started by adding enzyme solution, and the decrease of the absorbance at 340 nm is measured spectrophotometrically at 25° C. In the blank assay, DHA is excluded from the reaction mixture. One unit of the enzyme activity is defined as the amount of enzyme which catalyzes the formation of 1 μmol NAD^+ in one minute under the above conditions. The above reaction is represented by the following equations: [drawing 3]
# [4] = biological target: T1, DHAK (I); assay: Specificity of DHAK (I) for phosphate donor; settings: for Relative activity DHAK (I) (phosphate donor): Adenosine 5'-triphosphate = 100%
# Experimental: as §2
# [5] = biological target: T2, DHAK (II); assay: Specificity of DHAK (II) for divalent metal cations; settings: each divalent metal cation 4 mM; MgSO4 = 100%
# Experimental: as §2
# (§3) Each divalent metal cation (4 mM) was added to the reaction mixture and the activity of the enzyme was measured.
# [6] = biological target: T1, DHAK (I); assay: Specificity of DHAK (I) for divalent metal cations; settings: for Relative activity DHAK (I) (metal cation): each divalent metal cation 4 mM, MgSO4 = 100%
# Experimental: as §2, §3
# [7] = pH 7.5, read-out: Relative activity DHAK (I) (substrate)
compound,measurement,setting,value
O=CC(O)CO (racemic) [DL-Glyceraldehyde],Relative activity DHAK (II) (substrate),[1],12%
same,Action of DHAK (II) on substrate (in words),[1]; summary of Table 1,slightly
same,activity at 1000 µM,[2]; [7],27%
same,Action of DHAK (I) on substrate (in words),[2]; summary of Table 1,slightly
O=C(O)C(O)CO (racemic) [DL-Glyceric acid],Relative activity DHAK (II) (substrate),[1],0%
same,activity at 1000 µM,[2]; pH 7.5; read-out: Relative activity DHAK (I) (substrate),0%
"CC(O)CO (stereo not shown) [1,2-Propanediol]",Relative activity DHAK (II) (substrate),[1],0%
same,activity at 1000 µM,[2]; [7],0%
"OCCCO [1,3-Propanediol]",Relative activity DHAK (II) (substrate),[1],0%
same,activity at 1000 µM,[2]; [7],0%
CC(=O)C(C)O (stereo not shown) [Acetoin],Relative activity DHAK (II) (substrate),[1],0%
same,activity at 1000 µM,[2]; [7],0%
CC(=O)CO [Acetol],Relative activity DHAK (II) (substrate),[1],0%
same,activity at 1000 µM,[2]; [7],0%
Nc1ncnc2c1ncn2[C@@H]1O[C@H](COP(=O)(O)OP(=O)(O)OP(=O)(O)O)[C@@H](O)[C@H]1O [Adenosine 5'-triphosphate],Relative activity DHAK (II) (phosphate donor),[3],100%
same,Phosphate donor ranking for DHAK (II) (in words),[3]; summary of Table 2,best phosphate donor
same,Relative activity DHAK (I) (phosphate donor),[4],100%
same,Phosphate donor ranking for DHAK (I) (in words),[4]; summary of Table 2,best phosphate donor
[Ca+2].[Cl-].[Cl-] [CaCl2],Relative activity DHAK (II) (metal cation),[5],44%
same,Metal cation ranking for DHAK (I) (in words),"[6]; cation 4 mM, summary of Table 3",maximum activity
same,Relative activity DHAK (I) (metal cation),[6],125%
[Cl-].[Cl-].[Co+2] [CoCl2],Relative activity DHAK (II) (metal cation),[5],22%
same,Relative activity DHAK (I) (metal cation),[6],29%
Nc1ccn([C@@H]2O[C@H](COP(=O)(O)OP(=O)(O)OP(=O)(O)O)[C@@H](O)[C@H]2O)c(=O)n1 [Cytidine 5'-triphosphate],Relative activity DHAK (II) (phosphate donor),[3],0%
same,Relative activity DHAK (I) (phosphate donor),[4],0%
